What was measured:
powdery mildew = assay: Test Example 9: control test of wheat powdery mildew, cup in greenhouse, inoculated, Norin No. 61 (Tables 10 to 14); type: in vivo, Blumeria graminis; design: key to Degree of Disease Occurrence: Σ(index×leaves)/(4×leaves investigated)×100; 0 = no disease, 100 = max
Procedure: (§1) Degree of Disease Occurrence=Σ(Index×Number of Leaves of Index)/(4×Number of Investigated Leaves)×100 (1)
Seed of wheat (variety: Norin No. 61) was used, and 100 ml of suspension waters each containing the compound shown in Table 10 at an amount shown in […] (synthesis was performed in accordance with a known method, a solution dissolved in DMSO or formulated 10% wettable powder was used) were prepared. The seed having a mass of 1 kg of wheat was mixed into the suspension water with a chemical treated amount shown in Table 10, and air-dried, and then, 5 seeds were sown in a plastic cup having a diameter of 6 cm containing river sand and managed in a greenhouse. In Comparative Examples, 20 ml of the suspension water of an active ingredient, which had been adjusted to have a concentration shown in Table 10, was sprayed in a frame of 45 cm×45 cm in which a pot of wheat seedlings was placed (corresponding to 1000 L/ha) 14 days after seeding. On day 14 after seeding, conidiospores of powdery mildew were sifted over leaves of wheat seedlings and inoculated onto the leaves (after the sprayed liquid was dried in the case of Comparative Examples), a lesion area ratio of powdery mildew in a first leaf was investigated 21 days after seeding according to the criteria in Table 1, and the degree of disease occurrence was calculated by the above calculation formula (1).

septoria leaf blotch = assay: Test Example 10: control test of septoria leaf blotch of wheat, cup in greenhouse, inoculated, variety ARKEOS (Tables 15 to 19); type: in vivo, Septoria tritici
Procedure: as §1
Seed of wheat (variety: ARKEOS) was used, and 100 ml of suspension waters each containing the compound shown in Table 15 at an amount shown in Table 15 (synthesis was performed in accordance with a known method, a liquid dissolved in a small amount of DMSO or formulated 10% wettable powder was used) were prepared. Seed having a mass of 1 kg was mixed into the suspension water with a rate shown in Examples of Table 15, and air-dried, and then, 5 seeds were sown in a plastic cup having a diameter of 6 cm containing mixed soil of river sand and horticultural soil and managed in a greenhouse. In Comparative Examples, 20 ml of suspension water of an active ingredient, which had been adjusted to have a concentration shown in Table 15 to 19, was sprayed in a frame of 45 cm×45 cm in which a pot of wheat seedlings was placed (corresponding to 1000 L/ha) 14 days after seeding. On day 14 after seeding, a spore suspension in which conidiospores of septoria leaf blotch are suspended was sprayed and inoculated on leaves of wheat seedlings (after the sprayed liquid was dried in the case of Comparative Examples), a lesion area ratio of septoria leaf blotch in a second leaf was investigated approximately 35 days after seeding according to the criteria in Table 1, and the degree of disease occurrence was calculated by the above calculation formula (1).

[1] = Table 14, Foliage Treatment, spray 10 ppm suspension water (corresponding to 10 g/ha) 14 days after seeding, untreated 70.0
[2] = Table 14, Foliage Treatment, spray 10 ppm suspension water (corresponding to 10 g/ha) 14 days after seeding, untreated 100.0
[3] = Table 14, Seed Treatment, 0.1 g/Seed 1 kg (corresponding to 10 g/ha), first leaf, 21 days after seeding, untreated 70.0
[4] = Table 14, Seed Treatment, 0.1 g/Seed 1 kg (corresponding to 10 g/ha), first leaf, 21 days after seeding, untreated 100.0
[5] = Table 12 run (different day), Foliage Treatment, spray 5 ppm (5 g/ha)
[6] = Table 12 run (different day), Foliage Treatment, spray 10 ppm (10 g/ha)
[7] = Table 12 run (different day), Foliage Treatment, spray 50 ppm (50 g/ha)
[8] = Table 12 run (different day), Seed Treatment 0.05 g/Seed 1 kg (5 g/ha)
[9] = Table 12 run (different day), Seed Treatment 0.1 g/Seed 1 kg (10 g/ha)
[10] = Table 12 run (different day), Seed Treatment 0.5 g/Seed 1 kg (50 g/ha)
[11] = Table 18, Foliage Treatment, spray 5 ppm (5 g/ha)
[12] = Table 18, Foliage Treatment, spray 10 ppm (10 g/ha)
[13] = Table 18, Seed Treatment 0.05 g/Seed 1 kg (5 g/ha)
[14] = Table 18, Seed Treatment 0.1 g/Seed 1 kg (10 g/ha)
[15] = Table 10 run, Foliage Treatment, spray 10 ppm (10 g/ha) day 14, first leaf, 21 days after seeding
[16] = Table 10 run, Foliage Treatment, spray 50 ppm (50 g/ha) day 14, first leaf, 21 days after seeding
[17] = Table 10 run, Foliage Treatment, spray 100 ppm (100 g/ha) day 14, first leaf, 21 days after seeding
[18] = Table 10 run, Seed Treatment 0.1 g/Seed 1 kg (10 g/ha), first leaf, 21 days after seeding
[19] = Table 10 run, Seed Treatment 0.5 g/Seed 1 kg (50 g/ha), first leaf, 21 days after seeding
[20] = Table 10 run, Seed Treatment 1 g/Seed 1 kg (100 g/ha), first leaf, 21 days after seeding
[21] = Table 11 run (different day), Foliage Treatment, spray 10 ppm (10 g/ha)
[22] = Table 11 run (different day), Foliage Treatment, spray 50 ppm (50 g/ha)
[23] = Table 11 run (different day), Seed Treatment 0.1 g/Seed 1 kg (10 g/ha)
[24] = Table 11 run (different day), Seed Treatment 0.5 g/Seed 1 kg (50 g/ha)
[25] = Table 13 run (different day), Foliage Treatment, spray 10 ppm (10 g/ha)
[26] = Table 13 run (different day), Seed Treatment 0.1 g/Seed 1 kg (10 g/ha)

N=C(OCc1ccccc1)c1snc(Cl)c1Cl [Compound (12)]
Degree of Disease Occurrence (powdery mildew; [1]): 56.9
Disease Leaf Rate (%) (powdery mildew; [2]): 94.4%
Degree of Disease Occurrence (powdery mildew; Table 14, Foliage Treatment, spray 100 ppm suspension water (corresponding to 100 g/ha) 14 days after seeding, untreated 70.0): 47.9
Disease Leaf Rate (%) (powdery mildew; Table 14, Foliage Treatment, spray 100 ppm suspension water (corresponding to 100 g/ha) 14 days after seeding, untreated 100.0): 93.3%
Degree of Disease Occurrence (powdery mildew; [3]): 21.3
Disease Leaf Rate (%) (powdery mildew; [4]): 75.8%
Degree of Disease Occurrence (powdery mildew; Table 14, Seed Treatment, 1 g/Seed 1 kg (corresponding to 100 g/ha), first leaf, 21 days after seeding, untreated 70.0): 34.1
Disease Leaf Rate (%) (powdery mildew; Table 14, Seed Treatment, 1 g/Seed 1 kg (corresponding to 100 g/ha), first leaf, 21 days after seeding, untreated 100.0): 87.5%
Degree of Disease Occurrence (septoria leaf blotch; Table 19, Foliage Treatment, spray 10 ppm suspension water (corresponding to 10 g/ha) 14 days after seeding, untreated 45.0): 53.3
Disease Leaf Rate (%) (septoria leaf blotch; Table 19, Foliage Treatment, spray 10 ppm suspension water (corresponding to 10 g/ha) 14 days after seeding, untreated 98.0): 99.3%
Degree of Disease Occurrence (septoria leaf blotch; Table 19, Foliage Treatment, spray 50 ppm suspension water (corresponding to 50 g/ha) 14 days after seeding, untreated 45.0): 39.2
Disease Leaf Rate (%) (septoria leaf blotch; Table 19, Foliage Treatment, spray 50 ppm suspension water (corresponding to 50 g/ha) 14 days after seeding, untreated 98.0): 93.6%
Degree of Disease Occurrence (septoria leaf blotch; Table 19, Seed Treatment, 0.1 g/Seed 1 kg (corresponding to 10 g/ha), untreated 45.0): 26.3
Disease Leaf Rate (%) (septoria leaf blotch; Table 19, Seed Treatment, 0.1 g/Seed 1 kg (corresponding to 10 g/ha), untreated 98.0): 75.0%
Degree of Disease Occurrence (septoria leaf blotch; Table 19, Seed Treatment, 0.5 g/Seed 1 kg (corresponding to 50 g/ha), untreated 45.0): 10.3
Disease Leaf Rate (%) (septoria leaf blotch; Table 19, Seed Treatment, 0.5 g/Seed 1 kg (corresponding to 50 g/ha), untreated 98.0): 41.3%

N=C(N)c1snc(Cl)c1Cl [Compound (13)]
Degree of Disease Occurrence (powdery mildew; [5]): 60.0
Disease Leaf Rate (%) (powdery mildew; [5]): 100.0%
Degree of Disease Occurrence (powdery mildew; [6]): 36.7
Disease Leaf Rate (%) (powdery mildew; [6]): 53.3%
Degree of Disease Occurrence (powdery mildew; [7]): 21.7
Disease Leaf Rate (%) (powdery mildew; [7]): 53.3%
Degree of Disease Occurrence (powdery mildew; [8]): 19.4
Disease Leaf Rate (%) (powdery mildew; [8]): 53.3%
Degree of Disease Occurrence (powdery mildew; [9]): 7.5
Disease Leaf Rate (%) (powdery mildew; [9]): 20.0%
Degree of Disease Occurrence (powdery mildew; [10]): 9.7
Disease Leaf Rate (%) (powdery mildew; [10]): 38.9%
Degree of Disease Occurrence (powdery mildew; [1]): 35.6
Disease Leaf Rate (%) (powdery mildew; [2]): 76.7%
Degree of Disease Occurrence (powdery mildew; Table 14, Foliage Treatment, spray 50 ppm suspension water (corresponding to 50 g/ha) 14 days after seeding, untreated 70.0): 31.3
Disease Leaf Rate (%) (powdery mildew; Table 14, Foliage Treatment, spray 50 ppm suspension water (corresponding to 50 g/ha) 14 days after seeding, untreated 100.0): 83.3%
Degree of Disease Occurrence (powdery mildew; [3]): 17.2
Disease Leaf Rate (%) (powdery mildew; [4]): 68.8%
Degree of Disease Occurrence (powdery mildew; Table 14, Seed Treatment, 0.5 g/Seed 1 kg (corresponding to 50 g/ha), first leaf, 21 days after seeding, untreated 70.0): 13.9
Disease Leaf Rate (%) (powdery mildew; Table 14, Seed Treatment, 0.5 g/Seed 1 kg (corresponding to 50 g/ha), first leaf, 21 days after seeding, untreated 100.0): 44.4%
Degree of Disease Occurrence (septoria leaf blotch; [11]): 60.0
Disease Leaf Rate (%) (septoria leaf blotch; [11]): 100.0%
Degree of Disease Occurrence (septoria leaf blotch; [12]): 68.3
Disease Leaf Rate (%) (septoria leaf blotch; [12]): 100.0%
Degree of Disease Occurrence (septoria leaf blotch; [13]): 28.8
Disease Leaf Rate (%) (septoria leaf blotch; [13]): 95.0%
Degree of Disease Occurrence (septoria leaf blotch; [14]): 42.5
Disease Leaf Rate (%) (septoria leaf blotch; [14]): 100.0%

N#Cc1snc(Cl)c1Cl [Compound (2)]
Degree of Disease Occurrence (powdery mildew; [15]): 59.4
Disease Leaf Rate (%) (powdery mildew; [15]): 100.0%
Degree of Disease Occurrence (powdery mildew; [16]): 56.3
Disease Leaf Rate (%) (powdery mildew; [16]): 100.0%
Degree of Disease Occurrence (powdery mildew; [17]): 47.9
Disease Leaf Rate (%) (powdery mildew; [17]): 95.8%
Degree of Disease Occurrence (powdery mildew; [18]): 45.9
Disease Leaf Rate (%) (powdery mildew; [18]): 100.0%
Degree of Disease Occurrence (powdery mildew; [19]): 41.0
Disease Leaf Rate (%) (powdery mildew; [19]): 93.8%
Degree of Disease Occurrence (powdery mildew; [20]): 28.9
Disease Leaf Rate (%) (powdery mildew; [20]): 87.5%
Degree of Disease Occurrence (septoria leaf blotch; Table 16, Foliage Treatment, spray 100 ppm suspension water (corresponding to 100 g/ha) 14 days after seeding, untreated 57.1): 51.0
Disease Leaf Rate (%) (septoria leaf blotch; Table 16, Foliage Treatment, spray 100 ppm suspension water (corresponding to 100 g/ha) 14 days after seeding, untreated 93.3): 100.0%
Degree of Disease Occurrence (septoria leaf blotch; Table 16, Seed Treatment, 1 g/Seed 1 kg (corresponding to 100 g/ha), untreated 57.1): 37.5
Disease Leaf Rate (%) (septoria leaf blotch; Table 16, Seed Treatment, 1 g/Seed 1 kg (corresponding to 100 g/ha), untreated 93.3): 81.3%

CCOC(=O)c1snc(Cl)c1Cl [Compound (8)]
Degree of Disease Occurrence (powdery mildew; [21]): 96.9
Disease Leaf Rate (%) (powdery mildew; [21]): 100%
Degree of Disease Occurrence (powdery mildew; [22]): 94.8
Disease Leaf Rate (%) (powdery mildew; [22]): 100%
Degree of Disease Occurrence (powdery mildew; [23]): 80.2
Disease Leaf Rate (%) (powdery mildew; [23]): 100%
Degree of Disease Occurrence (powdery mildew; [24]): 75.1
Disease Leaf Rate (%) (powdery mildew; [24]): 96.4%
Degree of Disease Occurrence (powdery mildew; [25]): 72.8
Disease Leaf Rate (%) (powdery mildew; [25]): 100.0%
Degree of Disease Occurrence (powdery mildew; [26]): 49.7
Disease Leaf Rate (%) (powdery mildew; [26]): 95.8%
Degree of Disease Occurrence (septoria leaf blotch; Table 17, Foliage Treatment, spray 5 ppm suspension water (corresponding to 5 g/ha) 14 days after seeding, untreated 50.0): 38.3
Disease Leaf Rate (%) (septoria leaf blotch; Table 17, Foliage Treatment, spray 5 ppm suspension water (corresponding to 5 g/ha) 14 days after seeding, untreated 100.0): 100.0%
Degree of Disease Occurrence (septoria leaf blotch; Table 17, Foliage Treatment, spray 50 ppm suspension water (corresponding to 50 g/ha) 14 days after seeding, untreated 50.0): 31.7
Disease Leaf Rate (%) (septoria leaf blotch; Table 17, Foliage Treatment, spray 50 ppm suspension water (corresponding to 50 g/ha) 14 days after seeding, untreated 100.0): 100.0%
Degree of Disease Occurrence (septoria leaf blotch; Table 17, Foliage Treatment, spray 100 ppm suspension water (corresponding to 100 g/ha) 14 days after seeding, untreated 50.0): 26.7
Disease Leaf Rate (%) (septoria leaf blotch; Table 17, Foliage Treatment, spray 100 ppm suspension water (corresponding to 100 g/ha) 14 days after seeding, untreated 100.0): 93.3%
Degree of Disease Occurrence (septoria leaf blotch; Table 17, Seed Treatment, 0.05 g/Seed 1 kg (corresponding to 5 g/ha), untreated 50.0): 23.8
Disease Leaf Rate (%) (septoria leaf blotch; Table 17, Seed Treatment, 0.05 g/Seed 1 kg (corresponding to 5 g/ha), untreated 100.0): 90.0%
Degree of Disease Occurrence (septoria leaf blotch; Table 17, Seed Treatment, 0.5 g/Seed 1 kg (corresponding to 50 g/ha), untreated 50.0): 10.3
Disease Leaf Rate (%) (septoria leaf blotch; Table 17, Seed Treatment, 0.5 g/Seed 1 kg (corresponding to 50 g/ha), untreated 100.0): 36.3%
Degree of Disease Occurrence (septoria leaf blotch; Table 17, Seed Treatment, 1 g/Seed 1 kg (corresponding to 100 g/ha), untreated 50.0): 8.8
Disease Leaf Rate (%) (septoria leaf blotch; Table 17, Seed Treatment, 1 g/Seed 1 kg (corresponding to 100 g/ha), untreated 100.0): 35.0%
